Source: the supplement of paper PMC10627819

Tests used:
Conditions in all cases: main component drawn
S. pneumoniae D39V = experiment: Bliss interaction score (quartile over a dose matrix) (fitness difference); higher = more antagonism (negative = synergy)
Method in brief: (§1)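 Fitness was defined as normalised growth: OD595 at the start of stationary phase divided by the plate's robust no-drug mean and capped at 1. Single-drug fitness was inferred from combination measurements. The Bliss score is observed fitness minus the product of the single-drug values, summarised by quartiles across technical, biological and donor/recipient replicates.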

B. subtilis 168 [1] = experiment: as above
Method in brief: as §1

S. aureus DSM 20231 = experiment: as above
Method in brief: as §1

S. aureus Newman = experiment: as above
Method in brief: as §1

B. subtilis 168 [2] = experiment: fitness (endpoint OD595 vs no drug) (fraction); higher = more growth
Method in brief: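 Fitness was measured as bacterial growth in 384-well plates inoculated at OD595 0.01 (30 µl, or 55 µl for S. pneumoniae). Media were TSB, LB Lennox or CY, at 37 °C. OD595 was read every 30 min for 14 h and background-subtracted against the first reading. Fitness is OD595 at the transition into stationary phase divided by the robust mean of no-drug control wells, capped at 1.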
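For Bliss interaction score (quartile over a dose matrix) in this document: first quartile when negative (synergy) and third quartile when positive (antagonism).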
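For fitness (endpoint OD595 vs no drug) in this document: OD595 on entry to stationary phase over no-drug wells; at most 1.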

CC[C@H](C)[C@H](N)C1=N[C@H](C(=O)N[C@@H](CC(C)C)C(=O)N[C@H](CCC(=O)O)C(=O)N[C@H](C(=O)N[C@H]2CCCCNC(=O)[C@H](CC(N)=O)NC(=O)[C@@H](CC(=O)O)NC(=O)[C@H](Cc3cnc[nH]3)NC(=O)[C@@H](Cc3ccccc3)NC(=O)[C@H]([C@@H](C)CC)NC(=O)[C@@H](CCCN)NC2=O)[C@@H](C)CC)CS1 [Bacitracin] + CC(=O)NC[C@H]1CN(c2ccc(N3CCOCC3)c(F)c2)C(=O)O1 [Linezolid]
Conditions	Bliss interaction score
B. subtilis 168 [1]	-0.0832
S. aureus DSM 20231	-0.0504
S. aureus Newman	-0.087
S. pneumoniae D39V	-0.0719

B. subtilis 168 [2], partner 0.0625 µg/mL, one replicate
Conditions	fitness
first compound 37.5 µg/mL	0.823
first compound 75 µg/mL	0.749
first compound 150 µg/mL	0.3

fitness, B. subtilis 168 [2]
Conditions	first compound 37.5 µg/mL	first compound 75 µg/mL	first compound 150 µg/mL
partner 0.125 µg/mL	0.609	–	–
partner 0.25 µg/mL	–	0.13	0.0363
partner 0.5 µg/mL	0.0502	0.0304	0.0221

CC[C@H](C)[C@H](N)C1=N[C@H](C(=O)N[C@@H](CC(C)C)C(=O)N[C@H](CCC(=O)O)C(=O)N[C@H](C(=O)N[C@H]2CCCCNC(=O)[C@H](CC(N)=O)NC(=O)[C@@H](CC(=O)O)NC(=O)[C@H](Cc3cnc[nH]3)NC(=O)[C@@H](Cc3ccccc3)NC(=O)[C@H]([C@@H](C)CC)NC(=O)[C@@H](CCCN)NC2=O)[C@@H](C)CC)CS1 [Bacitracin] + CCC(C)C1C(=O)NC(=C)C(=O)NC(C(=O)NC(CSCC(C(=O)N1)NC(=O)/C(=C/C)/NC(=O)C(C(C)CC)N)C(=O)NC2C(SCC(NC(=O)CNC(=O)C3CCCN3C2=O)C(=O)NC(CCCCN)C(=O)NC4C(SCC(NC(=O)CNC(=O)C(NC(=O)C(NC(=O)C(NC(=O)CNC4=O)C)CC(C)C)CCSC)C(=O)NC(CC(=O)N)C(=O)NC(CCSC)C(=O)NC(CCCCN)C(=O)NC5C(SCC6C(=O)NC(C(=O)NC(CSC(C(C(=O)N6)NC(=O)C(NC5=O)C)C)C(=O)NC(CO)C(=O)NC(C(C)CC)C(=O)NC(CC7=CN=CN7)C(=O)NC(C(C)C)C(=O)NC(=C)C(=O)NC(CCCCN)C(=O)O)CC8=CN=CN8)C)C)C)CC(C)C [Nisin]
Conditions	Bliss interaction score
B. subtilis 168 [1]	-0.191
S. aureus DSM 20231	-0.0406
S. aureus Newman	0.112
S. pneumoniae D39V	-0.0689

fitness, B. subtilis 168 [2]
Conditions	first compound 37.5 µg/mL	first compound 75 µg/mL	first compound 150 µg/mL
partner 0.5 µg/mL	0.78	0.711	0.516
partner 1 µg/mL	0.754	0.575	0.269
partner 2 µg/mL	0.473	0.165	0.0302

fitness, B. subtilis 168 [2], one replicate
Conditions	partner 1.25 µg/mL	partner 1.6 µg/mL	partner 2.5 µg/mL	partner 3.2 µg/mL	partner 4 µg/mL	partner 5 µg/mL	partner 6.4 µg/mL	partner 8 µg/mL	partner 16 µg/mL
first compound 37.5 µg/mL	0.807	0.409	0.293	0.0184	0.0266	0.0118	0.0283	0.0124	0.0057
first compound 75 µg/mL	0.809	0.178	0.0249	0.0153	0.116	0.0085	0.0276	0.0348	0.0088
first compound 150 µg/mL	0.611	0.0142	0.0156	0.0131	0.0334	0.0106	0.0205	0.0221	0.0151

CC[C@H](C)[C@H](N)C1=N[C@H](C(=O)N[C@@H](CC(C)C)C(=O)N[C@H](CCC(=O)O)C(=O)N[C@H](C(=O)N[C@H]2CCCCNC(=O)[C@H](CC(N)=O)NC(=O)[C@@H](CC(=O)O)NC(=O)[C@H](Cc3cnc[nH]3)NC(=O)[C@@H](Cc3ccccc3)NC(=O)[C@H]([C@@H](C)CC)NC(=O)[C@@H](CCCN)NC2=O)[C@@H](C)CC)CS1 [Bacitracin] + CCC[C@@H]1C[C@@H](C(=O)N[C@@H]([C@H]2O[C@H](SC)[C@H](O)[C@@H](O)[C@H]2O)[C@@H](C)O)N(C)C1 [Lincomycin]
Conditions	Bliss interaction score
B. subtilis 168 [1]	0.0963
S. aureus DSM 20231	-0.046
S. aureus Newman	0.104
S. pneumoniae D39V	-0.0546

fitness, B. subtilis 168 [2]
Conditions	first compound 37.5 µg/mL	first compound 75 µg/mL	first compound 150 µg/mL
partner 0.1 µg/mL	0.955	0.915	0.896
partner 0.2 µg/mL	0.919	0.832	0.733
partner 0.4 µg/mL	0.86	0.827	–

fitness, B. subtilis 168 [2], one replicate
Conditions	first compound 37.5 µg/mL	first compound 75 µg/mL	first compound 150 µg/mL
partner 0.8 µg/mL	0.764	0.74	0.389
partner 1.6 µg/mL	0.769	0.686	0.439

CC[C@H](C)[C@H](N)C1=N[C@H](C(=O)N[C@@H](CC(C)C)C(=O)N[C@H](CCC(=O)O)C(=O)N[C@H](C(=O)N[C@H]2CCCCNC(=O)[C@H](CC(N)=O)NC(=O)[C@@H](CC(=O)O)NC(=O)[C@H](Cc3cnc[nH]3)NC(=O)[C@@H](Cc3ccccc3)NC(=O)[C@H]([C@@H](C)CC)NC(=O)[C@@H](CCCN)NC2=O)[C@@H](C)CC)CS1 [Bacitracin] + CN(C)C(=O)C(CCN1CCC(O)(c2ccc(Cl)cc2)CC1)(c1ccccc1)c1ccccc1 [Loperamide]
Conditions	Bliss interaction score
B. subtilis 168 [1]	-0.13
S. aureus DSM 20231	-0.0677
S. aureus Newman	-0.0942
S. pneumoniae D39V	0.1

fitness, B. subtilis 168 [2]
Conditions	first compound 37.5 µg/mL	first compound 75 µg/mL	first compound 150 µg/mL
partner 25 µg/mL	0.598	–	–
partner 50 µg/mL	–	0.0219	0.0315
partner 100 µg/mL	0.0325	0.0281	0.0237

CC[C@H](C)[C@H](N)C1=N[C@H](C(=O)N[C@@H](CC(C)C)C(=O)N[C@H](CCC(=O)O)C(=O)N[C@H](C(=O)N[C@H]2CCCCNC(=O)[C@H](CC(N)=O)NC(=O)[C@@H](CC(=O)O)NC(=O)[C@H](Cc3cnc[nH]3)NC(=O)[C@@H](Cc3ccccc3)NC(=O)[C@H]([C@@H](C)CC)NC(=O)[C@@H](CCCN)NC2=O)[C@@H](C)CC)CS1 [Bacitracin] + CO[C@@H]1[C@@H](OC(N)=O)[C@@H](O)[C@H](Oc2ccc3c(O)c(NC(=O)c4ccc(O)c(CC=C(C)C)c4)c(=O)oc3c2C)OC1(C)C [Novobiocin]
Conditions	Bliss interaction score
B. subtilis 168 [1]	0.126
S. aureus DSM 20231	-0.0399
S. aureus Newman	-0.0809
S. pneumoniae D39V	0.0678

fitness, B. subtilis 168 [2]
Conditions	first compound 37.5 µg/mL	first compound 75 µg/mL	first compound 150 µg/mL
partner 0.0125 µg/mL	≥ 1	0.97	0.946
partner 0.025 µg/mL	0.988	≥ 1	0.941
partner 0.05 µg/mL	≥ 1	0.964	0.935

fitness, B. subtilis 168 [2], one replicate
Conditions	partner 0.1 µg/mL	partner 0.125 µg/mL	partner 0.2 µg/mL	partner 0.25 µg/mL	partner 0.5 µg/mL
first compound 37.5 µg/mL	0.817	0.917	0.861	0.894	0.431
first compound 75 µg/mL	0.763	0.959	0.804	0.922	0.293
first compound 150 µg/mL	0.534	0.861	0.63	0.559	0.164

CC[C@H](C)[C@H](N)C1=N[C@H](C(=O)N[C@@H](CC(C)C)C(=O)N[C@H](CCC(=O)O)C(=O)N[C@H](C(=O)N[C@H]2CCCCNC(=O)[C@H](CC(N)=O)NC(=O)[C@@H](CC(=O)O)NC(=O)[C@H](Cc3cnc[nH]3)NC(=O)[C@@H](Cc3ccccc3)NC(=O)[C@H]([C@@H](C)CC)NC(=O)[C@@H](CCCN)NC2=O)[C@@H](C)CC)CS1 [Bacitracin] + COc1cc(Cc2cnc(N)nc2N)cc(OC)c1OC [Trimethoprim]
Conditions	Bliss interaction score
B. subtilis 168 [1]	0.0858
S. aureus DSM 20231	0.013
S. aureus Newman	-0.08
S. pneumoniae D39V	-0.0391

fitness, B. subtilis 168 [2], one replicate
Conditions	partner 0.1 µg/mL	partner 0.2 µg/mL	partner 0.4 µg/mL	partner 1 µg/mL	partner 2 µg/mL
first compound 37.5 µg/mL	0.925	0.65	0.508	0.462	0.24
first compound 75 µg/mL	0.898	0.715	0.532	0.441	0.235
first compound 150 µg/mL	0.875	0.71	0.499	0.348	0.219

fitness, B. subtilis 168 [2]
Conditions	first compound 37.5 µg/mL	first compound 75 µg/mL	first compound 150 µg/mL
partner 0.125 µg/mL	0.615	0.593	0.338
partner 0.5 µg/mL	0.518	–	–

CC[C@H](C)[C@H](N)C1=N[C@H](C(=O)N[C@@H](CC(C)C)C(=O)N[C@H](CCC(=O)O)C(=O)N[C@H](C(=O)N[C@H]2CCCCNC(=O)[C@H](CC(N)=O)NC(=O)[C@@H](CC(=O)O)NC(=O)[C@H](Cc3cnc[nH]3)NC(=O)[C@@H](Cc3ccccc3)NC(=O)[C@H]([C@@H](C)CC)NC(=O)[C@@H](CCCN)NC2=O)[C@@H](C)CC)CS1 [Bacitracin] + C[C@H]1COc2c(N3CCN(C)CC3)c(F)cc3c(=O)c(C(=O)O)cn1c23 [Levofloxacin]
Conditions	Bliss interaction score
B. subtilis 168 [1]	0.0288
S. aureus DSM 20231	0.034
S. aureus Newman	-0.043
S. pneumoniae D39V	-0.072

fitness, B. subtilis 168 [2], one replicate
Conditions	first compound 37.5 µg/mL	first compound 75 µg/mL	first compound 150 µg/mL
partner 0.001 µg/mL	0.94	0.969	0.728
partner 0.0078 µg/mL	0.842	0.844	0.439

fitness, B. subtilis 168 [2]
Conditions	partner 0.002 µg/mL	partner 0.0039 µg/mL	partner 0.0312 µg/mL	partner 0.0625 µg/mL	partner 0.125 µg/mL
first compound 37.5 µg/mL	0.812	0.851	0.0268	0.0345	0.0392
first compound 75 µg/mL	0.851	0.818	0.0206	0.0236	0.0256
first compound 150 µg/mL	0.527	0.55	0.0178	0.0214	0.0173
